Results from patent US10406169B2, “Methods of monitoring estriol therapy” (The Regents of the University of California, priority 2015, dated 2019).

Experiments:
Format in all cases: in vivo, human
[1] = system: relapsing-remitting multiple sclerosis; assay: Disability and questionnaire outcomes (EDSS, MFIS, BDI, MSQOL); details: for Proportion of pts with disability (EDSS) progression at 24 months % (95% CI): Kaplan-Meier
Method: EDSS assessments were performed by physicians who were trained either by in-person training or online (www.Neurostatus.net). […] Tertiary end points included gray matter atrophy on MRI, and changes in results from baseline on questionnaires including the Modified Fatigue Impact Scale, Beck Depression Inventory, and MS Quality of Life. Mixed effects negative binomial regression model and linear mixed effects model were used to compare enhancing lesion volume (log-transformed) between treatment groups at all follow-ups, and mixed effects logistic model was used to compare the number of subjects positive for gadolinium enhancing lesions. Linear mixed effects model was carried out to compare the percent change in whole gray matter and cortical gray matter between treatment groups.

[2] = system: relapsing-remitting multiple sclerosis; assay: Multiple Sclerosis Functional Composite (PASAT3, 9-hole peg, 25-foot walk); parameters: PASAT3 score, Mean ± SD / PASAT3 score, Median / PASAT3 score change from baseline, Mean ± SD / PASAT3 score change from baseline, Median: scale not given here; 25-foot Walk Time change from baseline, Mean ± SD / 25-foot Walk Time change from baseline, Median: unit not given here
From the text: Tertiary end points included gray matter atrophy on MRI, and changes in results from baseline on questionnaires including the Modified Fatigue Impact Scale, Beck Depression Inventory, and MS Quality of Life. Mixed effects negative binomial regression model and linear mixed effects model were used to compare enhancing lesion volume (log-transformed) between treatment groups at all follow-ups, and mixed effects logistic model was used to compare the number of subjects positive for gadolinium enhancing lesions. Linear mixed effects model was carried out to compare the percent change in whole gray matter and cortical gray matter between treatment groups. […] Mixed effects models were used to assess the association among outcomes and estriol levels at all follow-ups and using subjects in both treatment groups. Mixed effects logistic regression model was used to evaluate the association between the number of enhancing lesions and the occurrence of relapse at all follow-up intervals. Linear mixed effects model was carried out to evaluate the association between PASAT change and percent brain volume change, as well as between PASAT change and estriol levels.

[3] = system: relapsing-remitting multiple sclerosis; assay: Confirmed relapses (annualized relapse rate, time to first relapse); details: for Annualized relapse rate in 12 months, Rate (95% CI) / Annualized relapse rate in 24 months, Rate (95% CI): negative binomial regression
Method: The primary efficacy end point was the annualized relapse rate. A relapse was defined as the appearance of new neurological symptoms or the worsening of pre-existing symptoms, lasting at least 48 hours in a subject who had been neurologically stable or improving in the previous 30 days, accompanied by an objective change in a neurological examination (i.e., a worsening of 0.5 or more points on the EDSS or a worsening by 1.0 or more points on the pyramidal, cerebellar, brainstem or visual functional system scores, not due to fatigue alone and not associated with fever or infection). […] Both treating and examining physicians were unaware of study group assignments. The standard treatment for relapse was a 3-5 day course of glucocorticoids at the discretion of the treating neurologist.
Intention-to-treat analyses were carried out for all end points. […] To control the overall type I error, a sequential testing procedure was applied. […] Consistent with a phase 2 study using a clinical outcome, a p-value<0.10 was considered statistically significant.
For the time to first relapse analysis, Kaplan Meier curves and log-rank test were used to estimate and compare the relapse free probabilities of the two treatment groups. Cox proportional hazards model was used to compare the time to relapse free probabilities between two groups adjusting for covariates. […] The random effect of subject is included in the model to account for within subject correlation.
For the primary endpoint, the main analysis seeks to compare the relapse event rate between treatment groups based on the negative binomial regression. As a sensitivity analysis, recurrent events analysis was performed based on Andersen Gill model to compare the relapse hazard rate between treatment groups.

[4] = 24 months, negative = improvement
[5] = Month 24 (second line, N = 60 / 55)
[6] = Month 24 as printed (first of two lines, N = 70 / 60)
[7] = Patients with baseline score <55, Baseline
[8] = Patients with baseline score <55, Month 12
[9] = Patients with baseline score <55, Month 24

glatiramer acetate [Placebo + GA]
Beck Depression Inventory (BDI) score median change from baseline [1, 4]: −3.5
MFIS score median change from baseline [1, 4]: 0
Proportion of pts with disability (EDSS) progression at 24 months % (95% CI) [1]: 15.8 (8.8-27.6) %
Proportion of pts with disability (EDSS) progression at 24 months % (95% CI) ([1]; listed as Placebo plus GA): 15.8%
MSQOL composite scores for Physical outcomes ([1]; change from baseline): no change
EDSS score reduction from baseline to Month 24, Mean ± SD ([1]; in vivo): 0.05 ± 1.13
EDSS score reduction from baseline to Month 24, Median ([1]; in vivo): 0.0
EDSS absolute median change from baseline ([1]; month 24, negative = improvement): 0
PASAT3 score, Mean ± SD ([2]; All patients, Baseline): 52.3 ± 9.1
PASAT3 score, Median ([2]; All patients, Baseline): 56
PASAT3 score % change from baseline, Mean ± SD ([2]; All patients, Month 12): 0.8 ± 9.9%
PASAT3 score % change from baseline, Median ([2]; All patients, Month 12): 0%
PASAT3 score change from baseline, Mean ± SD ([2]; All patients, Month 12): 0.1 ± 4.5
PASAT3 score change from baseline, Median ([2]; All patients, Month 12): 0
PASAT3 score % change from baseline, Mean ± SD ([2]; All patients, Month 24): 2.7 ± 10.3%
PASAT3 score % change from baseline, Median ([2]; All patients, Month 24): 0%
PASAT3 score change from baseline, Mean ± SD ([2]; All patients, Month 24): 1.1 ± 4.3
PASAT3 score change from baseline, Median ([2]; All patients, Month 24): 0
9-Hole Peg Test, Mean ± SD ([2]; Baseline): 19.1 ± 2.7
9-Hole Peg Test, Median ([2]; Baseline): 18.8
25-foot Walk Time, Median ([2]; Baseline): 4.5 s
MSFC Score, Mean ± SD ([2]; Baseline): 0.06 ± 0.79
MSFC Score, Median ([2]; Baseline): 0.24
25-foot Walk Time, Mean ± SD ([2]; Baseline, in s (unit assumed)): 4.9 ± 1.5
9-Hole Peg Test change from baseline, Mean ± SD ([2]; Month 12): −0.1 ± 1.8
9-Hole Peg Test change from baseline, Median ([2]; Month 12): −0.4
MSFC Score change from baseline, Mean ± SD ([2]; Month 12): 0.06 ± 0.38
9-Hole Peg Test change from baseline, Mean ± SD ([2]; Month 24): −0.4 ± 1.5
9-Hole Peg Test change from baseline, Median ([2]; Month 24): −0.5
MSFC Score change from baseline, Mean ± SD ([2]; Month 24): 0.09 ± 0.43
25-foot Walk Time change from baseline, Mean ± SD [2, 5]: 0.1 ± 1.1
25-foot Walk Time change from baseline, Median [2, 5]: 0.1
25-foot Walk Time change from baseline, Mean ± SD [2, 6]: 0.0 ± 0.9
25-foot Walk Time change from baseline, Median [2, 6]: 0.0
PASAT3 score, Mean ± SD [2, 7]: 44.7 ± 9.1
PASAT3 score, Median [2, 7]: 49
PASAT3 score % change from baseline, Mean ± SD [2, 8]: 4.0 ± 14.0%
PASAT3 score % change from baseline, Median [2, 8]: 3.8%
PASAT3 score change from baseline, Mean ± SD [2, 8]: 1.6 ± 6.0
PASAT3 score change from baseline, Median [2, 8]: 1.0
PASAT3 score % change from baseline, Mean ± SD [2, 9]: 6.9 ± 14.7%
PASAT3 score % change from baseline, Median [2, 9]: 9.1%
PASAT3 score change from baseline, Mean ± SD [2, 9]: 3.0 ± 5.9
PASAT3 score change from baseline, Median [2, 9]: 4.0
Proportion of pts with relapse at 12 months % (95% CI) ([3]; Kaplan-Meier): 33.1 (23.5-45.2) %
Proportion of pts with relapse at 24 months % (95% CI) ([3]; Kaplan-Meier): 42.9 (32.1-55.5) %
Annualized relapse rate in 12 months, Rate (95% CI) [3]: 0.48 (0.33-0.69)
Annualized relapse rate in 24 months, Rate (95% CI) [3]: 0.37 (0.25-0.53)
Annualized relapse rate in 12 months, Rate (95% CI) ([3]; listed as Placebo+GA): 0.48
Annualized relapse rate in 24 months, Rate (95% CI) ([3]; listed as Placebo+GA): 0.37
